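How tested: cells in 96-well plates exposed to compound for 48 hours at five concentrations. Abbreviation: GI50, concentration required for 50% inhibition of growth. TGI: concentration producing complete growth inhibition.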
Tests used:
Assay in all cases: NCI-60 cell line screen, 48 h
[1] = tested on: SK-OV-3 ovarian
[2] = tested on: MDA-N
[3] = tested on: SK-MEL-5 melanoma
[4] = tested on: COLO 205 colon
[5] = tested on: IGROV1 ovarian
[6] = tested on: CCRF-CEM leukemia
[7] = tested on: HCT-15 colon
[8] = tested on: UACC-62 melanoma
[9] = tested on: DU-145 prostate
[10] = tested on: SF-539 CNS

Structure (SMILES) | TGI [1] [µM] | TGI [2] [µM] | TGI [3] [µM] | TGI [4] [µM] | TGI [5] [µM] | TGI [6] [µM] | TGI [7] [µM] | TGI [8] [µM] | TGI [9] [µM] | GI50 [1] [µM] | GI50 [3] [µM] | GI50 [10] [µM] | TGI [10] [µM] | GI50 [6] [µM] | GI50 [8] [µM] | GI50 [9] [µM] | GI50 [4] [µM] | GI50 [5] [µM] | GI50 [7] [µM]
Cc1cn(CC2=NCCN2)c(=O)[nH]c1=O | > 100 | > 100 | > 100 | > 100 | > 100 | > 100 | > 100 | > 100 | > 100 |  |  |  |  |  |  |  |  |  | 
COc1cc2cc(Oc3ccc(NC(=O)Nc4ccc(F)c(C(F)(F)F)c4)cc3)c(C)nc2cc1OCCN1CCCCC1 | 3.42 |  | 3.09 |  |  | 4.01 |  | 3.19 | 3.2 | 1.87 | 1.7 | 1.68 | 3.08 | 1.57 | 1.71 | 1.75 |  |  | 
O=C(c1ccc(Cl)cc1Cl)N(Cc1cccnc1)C(=S)N(Cc1cccnc1)C(=O)c1ccc(Cl)cc1Cl | 37.1 | 6.76 | 11.9 | 4.09 |  | > 100 | 15.4 | 23.8 | 13 |  |  |  | 4.43 |  |  |  |  |  | 
CCOC(=O)c1ncoc1[C@H]1COC(C)(C)O1 | > 100 |  | > 100 |  | > 100 | > 100 | > 100 | > 100 |  |  |  |  | > 100 |  |  |  |  |  | 
O=C1Nc2cccc3ncn(c23)C2=C1CCCC2 | > 100 |  | > 100 | > 100 | > 100 | > 100 | > 100 | > 100 |  |  |  |  | > 100 |  |  |  |  |  | 
Cn1c(=O)n2n(c1=O)Cc1cccc3cccc(c13)C2 | > 100 | > 100 | > 100 | > 100 |  | > 100 | > 100 | > 100 | > 100 |  |  |  | > 100 |  |  |  |  |  | 
S=C(NNC1=NCCCN1)Nc1ccccc1 | > 100 |  | > 100 | > 100 | > 100 | > 100 | > 100 | > 100 |  |  |  |  | > 100 |  |  |  |  |  | 
O=C1C=C(N2CCCC2)C=C(N2CCCC2)C1 | > 100 |  | > 100 | > 100 | > 100 | > 100 | > 100 | > 100 |  |  |  |  |  |  |  |  |  |  | 
CCOc1ccc2ccccc2c1NC1=NCCO1 | > 100 |  | > 100 | > 100 | > 100 | > 100 | > 100 | > 100 | > 100 |  |  |  | > 100 |  |  |  |  |  | 
O=C(O)C(CS)NCc1c2ccccc2[n+]([O-])c2ccccc12 (configuration not stated) | > 100 |  | > 100 | > 100 | > 100 | 80.8 | > 100 | > 100 |  |  |  |  |  |  |  |  |  |  | 
CCN(CC)CCNC(=O)c1ccc([N+](=O)[O-])cc1OC | > 100 |  | > 100 | > 100 | > 100 | > 100 | > 100 | > 100 |  |  |  |  | > 100 |  |  |  |  |  | 
O=[N+]([O-])c1cccc(N=C2c3ccccc3CN2c2cccc([N+](=O)[O-])c2)c1 | > 100 | > 100 | > 100 | > 100 | > 100 |  | > 100 | > 100 | > 100 |  |  |  | > 100 |  |  |  |  |  | 
N=C(/C=C/c1ccc(-c2cn3cc(/C=C/C(=N)N4CCCC4)ccc3n2)cc1)N1CCCC1 | > 100 | > 100 | > 100 | > 100 | > 100 |  | > 100 | > 100 | > 100 |  |  |  | > 100 |  |  |  |  |  | 
O=C(c1ccccc1)c1nn(-c2ccc(Cl)cc2)c2nc3nc(-c4ccccc4)cc(=O)n3nc12 | > 100 |  | 51.9 | > 100 | > 100 | > 100 | > 100 | 41.9 | > 100 | > 100 | 20.4 | 22.4 | 45.4 | 3.58 | 19.8 | 30.7 | 47.2 | 18.3 | 38.2
Cc1ccc(S(=O)(=O)N2CCCSCCSCCCSCC2)cc1 | > 100 |  | > 100 | > 100 | > 100 | > 100 | > 100 | > 100 | > 100 |  |  |  | > 100 |  |  |  |  |  | 
CCOC(=O)c1cccc(NC(=O)CBr)c1 | 3.43 | 2.82 | 2.76 | 3.29 | 2.77 |  | 3.66 | 2.92 | 3.39 |  |  |  | 2.6 |  |  |  |  |  | 
O=c1[nH]c2cc(C(F)(F)F)ccc2nc1Cc1ccccc1 | 87.4 |  | > 100 | > 100 | > 100 | > 100 | > 100 | > 100 | > 100 |  |  |  | > 100 |  |  |  |  |  | 

Structure (SMILES) | TGI [1] [µM] | TGI [2] [µM] | TGI [3] [µM] | TGI [4] [µM] | TGI [5] [µM] | TGI [6] [µM] | TGI [7] [µM] | TGI [8] [µM] | TGI [9] [µM] | GI50 [1] [µM] | GI50 [3] [µM] | GI50 [10] [µM] | TGI [10] [µM] | GI50 [6] [µM] | GI50 [8] [µM] | GI50 [9] [µM] | GI50 [4] [µM] | GI50 [5] [µM] | GI50 [7] [µM]
O=S(=O)(c1cc(Cl)ccc1Cl)N1CCN(c2ccc(Cl)c(Cl)c2)CC1 |  |  | 51.5 |  | > 100 | > 100 | > 100 |  | > 100 |  |  |  | 53.5 |  |  |  |  |  | 
CC(=O)OCCC1c2ccccc2-n2nc(-c3ccccc3)c(O)c21 (configuration not stated) |  | 33.2 | 33 | 40.1 |  | 50 | 55.1 |  | 41.1 |  |  |  | 44.7 |  |  |  |  |  | 
COc1cc([C@@H]2c3cc4c(cc3[C@H](OC3OC5COC(C(C)C)OC5C(O)C3O)C3COC(=O)[C@@H]32)OCO4)cc(OC)c1O (some centres not stated) | 39.1 | 6.48 | 22.6 | 19.9 | 21.8 | > 100 | 25.9 | 24.7 |  |  |  |  | 8.18 |  |  |  |  |  | 
COc1ccc(/C=C2\CN(C(=O)CCN3CCC(=NO)CC3)C/C(=C\c3ccc(OC)cc3)C2=O)cc1 | 7 |  | 3.29 | 4.11 | 4.36 | 18.9 | 5.56 | 4.38 | 3.67 | 2.72 | 1.82 | 1.71 | 3.18 | 3.05 | 1.89 | 1.9 | 2.04 | 1.94 | 2.15
CC(=O)Nc1ccc(Nc2cc(=O)n(C)c(=O)[nH]2)cc1 | > 100 | > 100 | > 100 | > 100 | > 100 | > 100 | > 100 | > 100 |  |  |  |  | > 100 |  |  |  |  |  | 
Cc1ccc(/C=C2\CN(C)CC3C(c4ccc(C)cc4)=C(C#N)C(=O)NC23)cc1 (configuration not stated) | > 50 | > 50 | > 50 | > 50 | > 50 | > 50 | > 50 | > 50 | > 50 |  |  |  |  |  |  |  |  |  | 
Cc1ccc(/C=C2\N=C(N3CCCCC3)NC2=O)cc1 | > 100 | > 100 |  | > 100 |  | > 100 | > 100 | > 100 | > 100 |  |  |  | > 100 |  |  |  |  |  | 
CC(=O)Oc1ccccc1[C@H]1CC(=O)C[C@H](c2ccccc2OC(C)=O)C12C(=O)c1ccccc1C2=O | > 100 | 47.3 | 48.7 | 54.3 | > 100 | > 100 | > 100 | 30.9 | > 100 |  |  |  |  |  |  |  |  |  | 
COC(=O)[C@@H]1C=C[C@@H](C#N)n2c(=O)n(-c3ccccc3)c(=O)n21 | > 100 |  | > 100 | > 100 | > 100 | 51.3 | > 100 | > 100 | > 100 |  |  |  | 65.3 |  |  |  |  |  | 
CCOc1ccc(N2C(=O)C3c4[nH]c5ccccc5c4C4CCC(C(C)(C)C)CC4C3C2=O)cc1 (configuration not stated) | > 100 |  | > 100 | > 100 | > 100 | > 100 | > 100 | > 100 |  |  |  |  | > 100 |  |  |  |  |  | 
O=C(O)CCC(NC(=O)c1ccc(Nc2nc3ccccc3nc2C(=O)O)cc1)C(=O)O (configuration not stated) | > 100 | > 100 | > 100 | > 100 | > 100 | > 100 |  | > 100 | > 100 |  |  |  | > 100 |  |  |  |  |  | 
Cc1c(C(=O)CSc2nc3ccc([N+](=O)[O-])cc3[nH]2)c(=O)n(-c2ccccc2)n1C | > 100 |  | > 100 | > 100 | > 100 | > 100 | > 100 |  |  |  |  |  | > 100 |  |  |  |  |  | 
CC(=O)OCC1OC(Nc2ccc3nc(C)n(-c4cccc(C)c4)c(=O)c3c2)C(OC(C)=O)C(OC(C)=O)C1OC(C)=O (configuration not stated) |  | > 62.5 | > 62.5 | > 62.5 | > 62.5 |  | > 62.5 | > 62.5 | > 62.5 |  |  |  |  |  |  |  |  |  | 
COc1cc(C2CC(c3cccc(Nc4ccncc4)c3)=NN2c2cc(Cl)cc(Cl)c2)cc(OC)c1OC (configuration not stated) | 3.89 |  | 3.24 |  | 3.25 |  | 3.43 | 3.18 | 3.08 | 1.86 | 1.8 | 1.72 | 3.2 |  | 1.69 | 1.68 |  | 1.69 | 1.79
CC(O)c1c2c(cc3c1CC1(C3)Cc3cc4c(c(C(C)O)c3C1)CCC4)CCC2 (configuration not stated) | 60.8 |  | 25.6 | 28.6 | 42.3 | 22.1 | 41.1 | 40.7 |  |  |  |  | 46.4 |  |  |  |  |  | 
O=C1C(C(O)(C(F)(F)Cl)C(F)(F)Cl)CCC1C(O)(C(F)(F)Cl)C(F)(F)Cl (configuration not stated) | > 10 | > 10 | > 10 | > 10 | > 10 |  | > 10 | > 10 | > 10 |  |  |  | 8.56 |  |  |  |  |  | 
